# Experimental data from ChEMBL document CHEMBL1201862, “PubChem BioAssay data set” (2004).
# Activity calls are given as the source filed them.
# Columns and labels:
# Procathepsin L = Procathepsin L (Homo sapiens, UniProt P07711)
# Aspartyl aminopeptidase = Aspartyl aminopeptidase (Plasmodium falciparum 3D7, UniProt Q8I2J3)
# [1] = target: Acyl-homoserine lactone acylase PvdQ (Pseudomonas aeruginosa (strain LESB58), UniProt Q9I194); test: PvdQ acylase enzyme activity blockers – biochemical, fluorescence, plate reader and imaging, cherry-picks, dose response (AID 493231)
# Acyl-homoserine lactone acylase PvdQ, sequence (Q9I194 24-193 limits assumed): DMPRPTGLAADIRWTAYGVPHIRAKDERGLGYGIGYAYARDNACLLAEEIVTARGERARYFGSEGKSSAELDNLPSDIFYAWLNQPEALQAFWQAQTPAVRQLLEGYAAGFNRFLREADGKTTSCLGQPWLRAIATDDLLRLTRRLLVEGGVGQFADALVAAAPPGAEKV
# Acyl-homoserine lactone acylase PvdQ, sequence (Q9I194 217-762 limits assumed): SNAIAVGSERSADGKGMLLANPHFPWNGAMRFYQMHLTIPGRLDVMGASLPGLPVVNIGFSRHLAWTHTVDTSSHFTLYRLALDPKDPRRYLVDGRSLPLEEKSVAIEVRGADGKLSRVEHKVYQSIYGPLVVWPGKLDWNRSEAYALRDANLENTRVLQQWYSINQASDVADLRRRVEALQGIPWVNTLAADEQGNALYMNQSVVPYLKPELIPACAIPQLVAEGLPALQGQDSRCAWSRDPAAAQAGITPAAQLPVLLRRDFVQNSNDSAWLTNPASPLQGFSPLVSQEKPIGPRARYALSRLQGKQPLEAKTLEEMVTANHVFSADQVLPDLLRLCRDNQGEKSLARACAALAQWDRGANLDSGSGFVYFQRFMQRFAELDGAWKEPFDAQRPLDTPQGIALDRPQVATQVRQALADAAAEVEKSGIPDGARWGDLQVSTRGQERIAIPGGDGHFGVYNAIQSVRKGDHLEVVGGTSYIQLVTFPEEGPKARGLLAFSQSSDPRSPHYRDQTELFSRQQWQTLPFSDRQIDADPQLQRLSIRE
# [2] = target: Intestinal-type alkaline phosphatase (Mus musculus, UniProt P24822); test: PubChem AID 488785; type: functional
# [3] = tested on: Streptococcus sp. 'group A'; test: Streptococcus pyogenes SK(-)GAS viability under kanamycin – luminescence, BacTiterGlo, confirmation, counter-screen for streptokinase expression inhibitor project, dose response (AID 1900); type: functional, organism-based
# [4] = target: T1, Alkaline phosphatase, tissue-nonspecific isozyme (Homo sapiens, UniProt P05186); test: TNAP enzyme inhibition by screening hits, dose response, selectivity assay for mouse IAP inhibitor project, biochemical, human TNAP, uHTS hits (AID 488906); type: functional
# T1 sequence (P05186 whole entry): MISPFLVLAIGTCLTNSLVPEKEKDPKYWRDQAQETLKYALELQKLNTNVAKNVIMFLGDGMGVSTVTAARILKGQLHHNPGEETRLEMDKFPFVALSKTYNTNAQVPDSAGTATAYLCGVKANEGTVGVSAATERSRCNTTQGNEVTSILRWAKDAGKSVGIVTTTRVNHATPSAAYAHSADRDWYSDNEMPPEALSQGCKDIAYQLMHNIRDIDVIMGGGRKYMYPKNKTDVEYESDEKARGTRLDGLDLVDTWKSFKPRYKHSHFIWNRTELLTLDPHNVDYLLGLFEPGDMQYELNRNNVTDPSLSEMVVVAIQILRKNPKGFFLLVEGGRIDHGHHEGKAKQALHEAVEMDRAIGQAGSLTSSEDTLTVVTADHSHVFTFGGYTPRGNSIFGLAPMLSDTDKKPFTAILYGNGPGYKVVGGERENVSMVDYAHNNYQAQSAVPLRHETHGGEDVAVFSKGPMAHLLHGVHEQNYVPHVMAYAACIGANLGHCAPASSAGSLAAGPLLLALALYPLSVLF
# Streptococcus = test: GAS UMAA2166 growth inhibition – luminescence, BacTiterGlo, counter-screen for streptokinase expression inhibitor project, dose response (AID 1915); type: functional, organism-based;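 also: potency for reduction of bacterial viability or growth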
# [5] = target: Intestinal-type alkaline phosphatase (Homo sapiens, UniProt P09923); test: activation of human intestinal alkaline phosphatase – biochemical, dose response (AID 488873); type: functional
# Streptokinase A = target: T2, Streptokinase A (Streptococcus pyogenes serotype M1, UniProt P10520); test: viability-normalized secreted streptokinase activity reduction – plasminogen activation absorbance, OD405, dose response (AID 1914); type: functional, Streptococcus pyogenes M1 GAS;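 also: secreted streptokinase activity via plasminogen activation per viability signal from cell pellet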
# T2 sequence (P10520 whole entry): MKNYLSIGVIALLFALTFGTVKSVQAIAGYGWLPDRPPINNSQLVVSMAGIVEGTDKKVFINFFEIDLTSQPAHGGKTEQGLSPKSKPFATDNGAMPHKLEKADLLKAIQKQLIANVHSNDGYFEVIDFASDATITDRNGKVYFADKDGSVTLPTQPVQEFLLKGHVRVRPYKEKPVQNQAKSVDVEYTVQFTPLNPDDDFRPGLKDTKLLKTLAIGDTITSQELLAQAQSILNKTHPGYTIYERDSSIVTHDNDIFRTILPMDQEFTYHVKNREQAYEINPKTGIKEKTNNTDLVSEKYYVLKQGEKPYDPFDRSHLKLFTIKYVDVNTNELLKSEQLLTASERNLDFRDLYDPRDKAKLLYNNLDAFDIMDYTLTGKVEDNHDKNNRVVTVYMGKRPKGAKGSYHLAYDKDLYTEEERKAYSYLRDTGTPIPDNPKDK
# [6] = target: Induced myeloid leukemia cell differentiation protein Mcl-1 (Homo sapiens, UniProt Q07820); type: functional
# Induced myeloid leukemia cell differentiation protein Mcl-1, sequence (Q07820 whole entry): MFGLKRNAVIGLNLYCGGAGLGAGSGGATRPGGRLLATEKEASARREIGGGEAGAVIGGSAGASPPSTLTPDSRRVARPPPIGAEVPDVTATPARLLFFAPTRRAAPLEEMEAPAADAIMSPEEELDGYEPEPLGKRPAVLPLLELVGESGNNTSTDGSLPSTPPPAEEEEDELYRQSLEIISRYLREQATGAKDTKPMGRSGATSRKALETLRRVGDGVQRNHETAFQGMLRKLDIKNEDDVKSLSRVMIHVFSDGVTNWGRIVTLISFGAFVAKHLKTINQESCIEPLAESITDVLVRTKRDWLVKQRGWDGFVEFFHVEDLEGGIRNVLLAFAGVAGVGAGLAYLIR
# Prothrombin = Prothrombin (Bos taurus, UniProt P00735); test: thrombin protease inhibitors – biochemical, fluorescence polarization, uHTS hits, dose response (AID 602369); type: functional
# Insulin-degrading enzyme = target: T3, Insulin-degrading enzyme (Homo sapiens, UniProt P14735); test: Dose Response: Fluorescence polarization-based cell-based high throughput dose response assay for inhibitors of insulin-degrading enzyme (IDE). [Related pubchem assays: 434962 (Primary screen (IDE inhibitors in singlicate)), 449730 (Counterscreen (Cytotoxicity in triplicate)), 435028 (Confirmation (IDE inhibitors in triplicate)), 434984 (Summary …; type: functional
# T3 sequence (P14735 whole entry): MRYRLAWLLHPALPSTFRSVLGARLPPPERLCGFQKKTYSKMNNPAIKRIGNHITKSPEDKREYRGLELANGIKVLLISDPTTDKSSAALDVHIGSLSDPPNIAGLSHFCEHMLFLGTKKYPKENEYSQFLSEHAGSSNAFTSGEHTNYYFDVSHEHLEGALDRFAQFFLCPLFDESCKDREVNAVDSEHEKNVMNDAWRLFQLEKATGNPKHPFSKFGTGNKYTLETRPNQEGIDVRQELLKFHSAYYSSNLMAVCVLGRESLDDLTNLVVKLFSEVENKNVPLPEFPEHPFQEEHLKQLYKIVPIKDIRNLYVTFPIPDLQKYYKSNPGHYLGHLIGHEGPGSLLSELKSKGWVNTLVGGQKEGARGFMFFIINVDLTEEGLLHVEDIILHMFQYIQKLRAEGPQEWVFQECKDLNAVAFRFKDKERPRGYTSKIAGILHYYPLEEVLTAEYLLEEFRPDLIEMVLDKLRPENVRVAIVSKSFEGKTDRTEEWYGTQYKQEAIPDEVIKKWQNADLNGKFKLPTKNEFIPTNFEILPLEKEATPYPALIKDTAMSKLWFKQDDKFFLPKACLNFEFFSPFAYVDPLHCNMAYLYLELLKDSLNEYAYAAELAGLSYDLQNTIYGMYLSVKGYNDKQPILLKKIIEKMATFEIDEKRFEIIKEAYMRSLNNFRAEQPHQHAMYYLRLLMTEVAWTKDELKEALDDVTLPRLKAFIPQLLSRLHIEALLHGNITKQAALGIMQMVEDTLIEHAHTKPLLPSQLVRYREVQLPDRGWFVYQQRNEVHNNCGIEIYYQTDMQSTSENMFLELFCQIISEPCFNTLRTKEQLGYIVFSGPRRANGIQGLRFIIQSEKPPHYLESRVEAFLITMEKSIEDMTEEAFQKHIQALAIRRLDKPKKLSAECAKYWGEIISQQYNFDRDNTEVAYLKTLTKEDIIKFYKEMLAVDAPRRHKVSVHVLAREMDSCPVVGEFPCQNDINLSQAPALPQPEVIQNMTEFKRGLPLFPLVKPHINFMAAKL
# [7] = target: 26S proteasome non-ATPase regulatory subunit 14 (Homo sapiens, UniProt O00487); test: inhibition of proteasome subunit RPN11 – biochemical, fluorescence polarization, uHTS hits, confirmation (AID 602368); type: functional
# 26S proteasome non-ATPase regulatory subunit 14, sequence (O00487 whole entry, the tested form may be a part): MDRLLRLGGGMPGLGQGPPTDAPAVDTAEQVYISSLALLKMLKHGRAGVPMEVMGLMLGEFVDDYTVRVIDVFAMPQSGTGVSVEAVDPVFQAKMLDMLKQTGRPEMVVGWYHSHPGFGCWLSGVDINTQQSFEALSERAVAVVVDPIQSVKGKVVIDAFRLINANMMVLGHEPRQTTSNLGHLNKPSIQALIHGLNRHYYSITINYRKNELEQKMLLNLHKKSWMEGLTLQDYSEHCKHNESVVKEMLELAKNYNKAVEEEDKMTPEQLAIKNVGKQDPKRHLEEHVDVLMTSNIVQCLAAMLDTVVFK
# [8] = target: T4, RNA-binding protein pos-1 (Caenorhabditis elegans, UniProt G5EF15); test: disruptors of C. elegans POS-1 RNA interaction – biochemical, fluorescence polarization, dose response (AID 1964);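 also: purified POS-1 fused to maltose binding protein made in E. coli; potency of compounds blocking POS-1 binding to fluorescent RNA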
# T4 sequence (G5EF15 whole entry): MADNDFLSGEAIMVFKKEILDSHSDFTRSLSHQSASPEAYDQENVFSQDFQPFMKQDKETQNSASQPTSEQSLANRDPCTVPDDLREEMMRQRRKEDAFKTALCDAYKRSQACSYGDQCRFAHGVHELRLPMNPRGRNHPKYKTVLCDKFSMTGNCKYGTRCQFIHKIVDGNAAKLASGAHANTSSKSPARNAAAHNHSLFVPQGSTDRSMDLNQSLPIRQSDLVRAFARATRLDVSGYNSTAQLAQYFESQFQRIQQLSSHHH
# [9] = target: T5, Zinc finger protein mex-5 (Caenorhabditis elegans, UniProt Q9XUB2); test: potency of MEX-5 RNA-binding blockers – biochemical, C. elegans, fluorescence polarization, dose response (AID 1960)
# T5 sequence (Q9XUB2 whole entry): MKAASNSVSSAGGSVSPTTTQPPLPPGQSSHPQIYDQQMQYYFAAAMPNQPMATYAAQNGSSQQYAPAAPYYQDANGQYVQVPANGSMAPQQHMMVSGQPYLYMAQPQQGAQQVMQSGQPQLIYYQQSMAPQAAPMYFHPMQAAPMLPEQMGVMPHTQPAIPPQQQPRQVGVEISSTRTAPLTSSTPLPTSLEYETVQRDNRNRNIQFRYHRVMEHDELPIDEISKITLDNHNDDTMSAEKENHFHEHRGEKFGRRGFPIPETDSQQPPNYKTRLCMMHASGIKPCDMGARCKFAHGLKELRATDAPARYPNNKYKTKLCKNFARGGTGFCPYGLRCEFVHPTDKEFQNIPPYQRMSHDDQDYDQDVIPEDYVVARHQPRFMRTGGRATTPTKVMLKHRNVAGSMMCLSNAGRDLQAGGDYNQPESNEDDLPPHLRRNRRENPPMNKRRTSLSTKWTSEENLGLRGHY
# [10] = target: 72 kDa type IV collagenase (Homo sapiens, UniProt P08253); test: Dose Response validation of uHTS RPN11 inhibitor hits using a MMP-2 Fluorescence assay.; type: functional
# 72 kDa type IV collagenase, sequence (P08253 whole entry): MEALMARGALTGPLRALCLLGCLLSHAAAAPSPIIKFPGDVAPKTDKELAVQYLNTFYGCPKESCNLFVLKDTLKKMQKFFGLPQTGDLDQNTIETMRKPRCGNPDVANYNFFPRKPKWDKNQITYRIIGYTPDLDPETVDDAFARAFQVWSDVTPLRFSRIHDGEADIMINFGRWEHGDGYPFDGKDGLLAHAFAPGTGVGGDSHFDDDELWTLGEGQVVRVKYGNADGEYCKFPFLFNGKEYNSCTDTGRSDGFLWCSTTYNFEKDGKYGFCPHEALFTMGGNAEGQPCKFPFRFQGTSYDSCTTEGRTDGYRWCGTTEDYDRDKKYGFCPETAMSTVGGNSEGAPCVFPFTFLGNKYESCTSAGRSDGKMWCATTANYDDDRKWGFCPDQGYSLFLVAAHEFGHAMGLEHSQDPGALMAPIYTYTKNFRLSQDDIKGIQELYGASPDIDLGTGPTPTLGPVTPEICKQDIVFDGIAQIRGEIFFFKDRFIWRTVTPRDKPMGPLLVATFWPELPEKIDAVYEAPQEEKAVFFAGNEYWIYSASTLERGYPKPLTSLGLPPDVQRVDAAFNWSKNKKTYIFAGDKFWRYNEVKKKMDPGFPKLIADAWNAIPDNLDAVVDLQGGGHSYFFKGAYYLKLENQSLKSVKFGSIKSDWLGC
# [11] = Counterscreen for IDE inhibitors: Luminescence-based cell-based high throughput dose response assay to identify compounds that are cytotoxic to HEK cells. [Related pubchem assays: 434962 (Primary screen (IDE inhibitors in singlicate)), 449730 (Counterscreen (Cytotoxicity in triplicate)), 435028 (Confirmation (IDE inhibitors in triplicate)) …; type: functional; conditions: HEK293
# Cytochrome P450 2D6 = Cytochrome P450 2D6 (Homo sapiens, UniProt P10635); test: qHTS Assay for Inhibitors and Substrates of Cytochrome P450 2D6. [Related pubchem assays: 410 ]; type: ADME; conditions: read-out: Potency
# Cytochrome P450 2D6, sequence (P10635 whole entry): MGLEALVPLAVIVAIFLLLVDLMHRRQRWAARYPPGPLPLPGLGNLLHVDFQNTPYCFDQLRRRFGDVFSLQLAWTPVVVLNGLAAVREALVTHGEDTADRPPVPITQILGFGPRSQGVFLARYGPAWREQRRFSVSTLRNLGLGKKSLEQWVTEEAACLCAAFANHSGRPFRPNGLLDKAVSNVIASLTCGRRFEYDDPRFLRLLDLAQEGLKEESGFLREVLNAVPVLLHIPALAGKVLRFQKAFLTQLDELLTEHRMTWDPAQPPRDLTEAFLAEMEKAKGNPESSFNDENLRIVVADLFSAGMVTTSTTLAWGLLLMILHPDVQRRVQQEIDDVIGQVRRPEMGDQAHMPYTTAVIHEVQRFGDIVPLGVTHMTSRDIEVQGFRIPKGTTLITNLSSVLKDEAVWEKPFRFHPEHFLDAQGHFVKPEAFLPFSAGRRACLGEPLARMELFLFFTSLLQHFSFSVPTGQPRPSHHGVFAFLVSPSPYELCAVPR
# Cytochrome P450 2C19 [12] = target: T6, Cytochrome P450 2C19 (Homo sapiens, UniProt P33261); test: qHTS Assay for Inhibitors and Substrates of Cytochrome P450 2C19. [Related pubchem assays: 410 ]; type: ADME; conditions: read-out: Potency
# T6 sequence (P33261 whole entry): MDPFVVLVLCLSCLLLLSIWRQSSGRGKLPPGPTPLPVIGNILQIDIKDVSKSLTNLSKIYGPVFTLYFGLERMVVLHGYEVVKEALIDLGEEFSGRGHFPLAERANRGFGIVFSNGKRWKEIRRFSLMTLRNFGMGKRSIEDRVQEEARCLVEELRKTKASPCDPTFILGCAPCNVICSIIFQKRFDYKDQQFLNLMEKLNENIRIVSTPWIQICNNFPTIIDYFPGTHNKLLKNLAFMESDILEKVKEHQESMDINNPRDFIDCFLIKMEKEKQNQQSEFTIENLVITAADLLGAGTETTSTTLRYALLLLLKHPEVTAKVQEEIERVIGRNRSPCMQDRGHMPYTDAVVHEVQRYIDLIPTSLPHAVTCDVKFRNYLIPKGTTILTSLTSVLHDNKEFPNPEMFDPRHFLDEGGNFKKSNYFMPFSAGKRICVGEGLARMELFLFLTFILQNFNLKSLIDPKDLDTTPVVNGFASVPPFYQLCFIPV
# [13] = target: Lysosomal acid glucosylceramidase (Homo sapiens, UniProt P04062); test: Dose response cell-based high throughput screening assay to identify enhancers of beta-glucosidase activity. [Related pubchem assays: 784 ]; type: functional
# Lysosomal acid glucosylceramidase, sequence (P04062 whole entry): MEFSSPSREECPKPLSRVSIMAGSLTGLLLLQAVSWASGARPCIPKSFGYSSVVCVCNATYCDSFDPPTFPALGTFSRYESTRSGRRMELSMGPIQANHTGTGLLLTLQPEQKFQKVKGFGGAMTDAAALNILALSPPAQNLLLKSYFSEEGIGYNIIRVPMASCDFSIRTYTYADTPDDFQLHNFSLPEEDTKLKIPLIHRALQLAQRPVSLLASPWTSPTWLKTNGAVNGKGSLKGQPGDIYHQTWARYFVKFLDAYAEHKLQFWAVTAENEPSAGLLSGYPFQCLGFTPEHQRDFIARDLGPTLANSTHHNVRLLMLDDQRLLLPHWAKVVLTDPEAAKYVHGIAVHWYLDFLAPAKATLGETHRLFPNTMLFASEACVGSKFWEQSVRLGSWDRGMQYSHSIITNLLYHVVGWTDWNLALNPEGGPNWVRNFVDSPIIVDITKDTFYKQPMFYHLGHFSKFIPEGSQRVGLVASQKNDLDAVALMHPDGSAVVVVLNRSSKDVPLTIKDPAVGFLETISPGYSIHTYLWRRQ
# Aminopeptidase N = target: T7, Aminopeptidase N (Plasmodium falciparum FcB1/Columbia, UniProt O96935); test: malaria alanyl aminopeptidase activity blockers – biochemical, fluorogenic H-Leu-NHMec substrate, 1536-well (AID 1445); design: species or system Plasmodium falciparum 3D7, 3D7
# T7 sequence (O96935 whole entry): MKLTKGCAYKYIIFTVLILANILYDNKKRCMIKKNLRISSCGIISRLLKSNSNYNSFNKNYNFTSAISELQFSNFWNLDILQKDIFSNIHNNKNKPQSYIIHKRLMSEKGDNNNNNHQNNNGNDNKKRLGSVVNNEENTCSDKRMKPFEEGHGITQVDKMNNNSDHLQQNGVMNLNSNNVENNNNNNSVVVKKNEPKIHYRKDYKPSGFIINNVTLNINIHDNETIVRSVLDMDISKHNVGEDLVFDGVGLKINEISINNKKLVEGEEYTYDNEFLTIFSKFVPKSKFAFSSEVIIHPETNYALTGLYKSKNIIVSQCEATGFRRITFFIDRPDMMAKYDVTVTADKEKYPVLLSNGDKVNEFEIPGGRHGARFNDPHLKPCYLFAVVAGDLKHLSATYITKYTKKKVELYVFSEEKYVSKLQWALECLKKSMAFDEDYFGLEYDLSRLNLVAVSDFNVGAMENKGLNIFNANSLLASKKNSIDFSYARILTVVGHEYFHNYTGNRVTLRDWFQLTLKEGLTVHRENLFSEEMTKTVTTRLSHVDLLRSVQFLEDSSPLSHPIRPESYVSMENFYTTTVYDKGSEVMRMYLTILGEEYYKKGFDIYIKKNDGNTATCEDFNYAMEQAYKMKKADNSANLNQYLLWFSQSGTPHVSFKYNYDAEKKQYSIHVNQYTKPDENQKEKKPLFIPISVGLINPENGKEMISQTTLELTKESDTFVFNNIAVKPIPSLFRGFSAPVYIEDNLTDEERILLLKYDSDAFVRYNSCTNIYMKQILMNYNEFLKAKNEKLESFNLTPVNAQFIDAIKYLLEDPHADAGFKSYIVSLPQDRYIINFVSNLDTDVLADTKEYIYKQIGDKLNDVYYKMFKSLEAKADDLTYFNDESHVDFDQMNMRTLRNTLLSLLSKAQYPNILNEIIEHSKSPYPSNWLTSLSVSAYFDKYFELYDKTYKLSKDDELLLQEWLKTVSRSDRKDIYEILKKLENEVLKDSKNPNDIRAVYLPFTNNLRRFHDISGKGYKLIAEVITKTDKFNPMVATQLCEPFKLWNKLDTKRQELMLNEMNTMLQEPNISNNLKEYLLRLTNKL
# Cytochrome P450 2C19 [14] = target: T6, Cytochrome P450 2C19; test: Cytochrome panel assay with activity outcomes. Panel member name: p450-cyp2c19 Compounds with AC50 equal or less than 10 uM are considered active; type: functional
# Cytochrome P450 2C9 = Cytochrome P450 2C9 (Homo sapiens, UniProt P11712)
# Cytochrome P450 2C9, sequence (P11712 whole entry): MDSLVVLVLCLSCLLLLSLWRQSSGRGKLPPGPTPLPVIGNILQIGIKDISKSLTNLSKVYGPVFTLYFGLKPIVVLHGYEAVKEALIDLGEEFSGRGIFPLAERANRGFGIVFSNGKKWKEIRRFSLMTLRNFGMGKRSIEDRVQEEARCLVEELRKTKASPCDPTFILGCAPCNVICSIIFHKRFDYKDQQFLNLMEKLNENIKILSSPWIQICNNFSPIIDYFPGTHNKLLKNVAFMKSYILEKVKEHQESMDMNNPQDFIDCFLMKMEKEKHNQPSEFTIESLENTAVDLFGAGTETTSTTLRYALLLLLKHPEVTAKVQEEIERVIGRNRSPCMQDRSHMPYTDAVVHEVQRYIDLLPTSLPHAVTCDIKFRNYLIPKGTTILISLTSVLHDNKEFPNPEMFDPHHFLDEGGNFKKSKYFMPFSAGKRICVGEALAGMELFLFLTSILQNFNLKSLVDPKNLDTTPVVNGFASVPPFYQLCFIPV
# Procathepsin L, sequence (P07711 whole entry): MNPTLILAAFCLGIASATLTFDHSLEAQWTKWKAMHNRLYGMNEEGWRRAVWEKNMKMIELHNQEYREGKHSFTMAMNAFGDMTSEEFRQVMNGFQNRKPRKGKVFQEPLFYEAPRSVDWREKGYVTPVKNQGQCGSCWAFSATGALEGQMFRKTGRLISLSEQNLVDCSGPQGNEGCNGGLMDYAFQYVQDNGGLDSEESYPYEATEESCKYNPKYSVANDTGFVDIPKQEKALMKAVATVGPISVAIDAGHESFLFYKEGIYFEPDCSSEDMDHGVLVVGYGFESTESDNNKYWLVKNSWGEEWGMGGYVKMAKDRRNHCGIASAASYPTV
# Aspartyl aminopeptidase, sequence (Q8I2J3 whole entry): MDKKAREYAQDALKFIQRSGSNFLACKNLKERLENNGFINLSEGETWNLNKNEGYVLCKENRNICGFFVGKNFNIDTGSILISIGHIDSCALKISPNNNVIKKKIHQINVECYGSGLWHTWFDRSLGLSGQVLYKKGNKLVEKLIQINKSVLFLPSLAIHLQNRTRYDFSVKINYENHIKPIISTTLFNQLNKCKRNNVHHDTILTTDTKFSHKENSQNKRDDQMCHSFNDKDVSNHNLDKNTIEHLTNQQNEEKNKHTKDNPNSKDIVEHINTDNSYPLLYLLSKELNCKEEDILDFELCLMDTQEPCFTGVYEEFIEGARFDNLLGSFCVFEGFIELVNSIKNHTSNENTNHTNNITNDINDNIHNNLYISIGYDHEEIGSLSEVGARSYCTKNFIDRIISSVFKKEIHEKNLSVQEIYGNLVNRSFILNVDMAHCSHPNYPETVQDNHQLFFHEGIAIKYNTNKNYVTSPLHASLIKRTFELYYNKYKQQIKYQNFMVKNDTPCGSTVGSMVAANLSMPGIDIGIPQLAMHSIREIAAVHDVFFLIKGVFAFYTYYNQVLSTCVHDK
smiles,measurement,setting,value
CCOc1cc(C(=O)NC(=S)Nn2cnnc2)cc(OCC)c1OCC,IC50,Procathepsin L,> 59.6 µM (not active)
same,IC50,Aspartyl aminopeptidase,921 nM (active)
Cc1cc(C)nc(N(C#N)Cc2ccc([N+](=O)[O-])cc2)n1,AC50,[1],> 100 µM (inactive)
NS(=O)(=O)c1ccc(-c2ccc(/C=C3\SC(=S)N(C4CCS(=O)(=O)C4)C3=O)o2)cc1 (configuration not stated),IC50,[2],> 100 µM (inactive)
same,EC50,[3],7.36 µM (active)
same,IC50,[4],1.32 µM (active)
same,EC50,Streptococcus,32.2 µM (active)
same,EC50,[5],29.4 µM (active)
same,EC50,Streptokinase A,> 150 µM (not active)
same,IC50,[6],1.85 µM (active)
CCOC(=O)c1ccc(NC(=O)c2ccco2)cc1,AC50,[1],57.2 µM (active)
COc1cc(OC)c(OC)cc1/C=C1\Oc2cc(OS(C)(=O)=O)ccc2C1=O,IC50,Prothrombin,468 nM (active)
same,IC50,Insulin-degrading enzyme,> 55.9 µM (not active)
same,IC50,[7],4.35 µM (active)
same,EC50,[8],> 300 µM (not active)
same,EC50,[9],> 300 µM (not active)
same,IC50,[10],> 100 µM (inactive)
same,IC50,[11],> 55.7 µM (not active)
CCOC(=O)[C@]1(C(NC(=O)OC)c2cccc(F)c2)CCCC1=O (some centres not stated),AC50,Cytochrome P450 2D6,3.98 µM (inconclusive)
same,AC50,Cytochrome P450 2C19 [12],3.98 µM (inconclusive)
COc1ccc(C(=O)n2cnnc2N)cc1,IC50,Procathepsin L,> 59.6 µM (not active)
same,IC50,Aspartyl aminopeptidase,2510 nM (active)
CC(=O)Nc1cccc(NC(=O)C2CCCN2C(=O)Nc2ccc(C)cc2)c1 (configuration not stated),EC50,[13],> 50 µM (not active)
same,IC50,Aminopeptidase N,61.3 µM (active)
COc1cccc2cc(NC(=O)C3CCCCC3)c(=O)oc12,AC50,Cytochrome P450 2C19 [14],39.8 µM (inconclusive)
same,AC50,Cytochrome P450 2C9,inconclusive
same,EC50,[13],> 50 µM (not active)
